Data on 28 compounds can be found in patent US9365540B2, “Benzimidazole derivatives as MCH receptor antagonists” (Takeda Pharmaceutical Company Limited, priority 2012, dated 2016).

The target in one assay is T1, human MCH receptor 1 (MCHR1) (Homo sapiens, UniProt Q99705).
T1 construct: expressed in transfected cells; host or cells: CHO cell clone 57 (membrane fraction)
T1 sequence (Q99705 whole entry): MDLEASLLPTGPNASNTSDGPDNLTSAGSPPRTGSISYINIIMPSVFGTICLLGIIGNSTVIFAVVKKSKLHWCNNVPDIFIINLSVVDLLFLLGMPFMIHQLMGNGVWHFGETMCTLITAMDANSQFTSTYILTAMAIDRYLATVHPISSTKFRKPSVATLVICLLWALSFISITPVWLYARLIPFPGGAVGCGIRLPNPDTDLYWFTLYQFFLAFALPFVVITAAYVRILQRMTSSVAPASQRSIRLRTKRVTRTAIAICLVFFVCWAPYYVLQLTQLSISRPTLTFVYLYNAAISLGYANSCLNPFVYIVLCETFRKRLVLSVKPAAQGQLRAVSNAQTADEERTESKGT
Nature of the assay: human MCH receptor 1 (MCHR1) competitive binding assay with [125I]-MCH(4-19). Conditions: test compound 0.1 μM, human MCHR1-expressing CHO cell membrane fraction, 0.1 µM. Here is the method:
Determination of human MCH receptor 1 (MCHR1) competitive inhibitory activity of test compound using binding assay
1. Preparation of Membrane Fraction
Using human MCHR1 (=SLC-1 receptor)-expressing CHO cell clone 57 described in WO01/82925, MCHR1-expressing CHO cell membrane fractions were prepared by the following method.
In phosphate buffered saline (pH 7.4) supplemented with 5 mM EDTA (ethylenediaminetetraacetic acid) were respectively suspended human MCHR1-expressing CHO cells (1×10^8 cells) and centrifuged. Homogenate buffer (10 mL, 10 mM NaHCO3, 5 mM EDTA, pH 7.5, 0.5 mM PMSF (phenylmethylsulfonyl fluoride), 20 mg/L leupeptin, 4 mg/L E-64, 1 mg/L pepstatin A) was added to the pellets of the cells and, using Polytron Homogenizer, the mixture was homogenated. The supernatant obtained after centrifugation at 400×g for 10 min was further centrifuged at 100,000×g for 1 hr to give precipitate of the membrane fraction. The precipitate were suspended in 2 mL of assay buffer [20 mM Tris-HCl (pH 7.5), 5 mM EDTA, 0.5 mM PMSF, 20 mg/L leupeptin, 4 mg/L E-64, 1 mg/L pepstatin A]. The membrane fractions were suspended in assay buffer to a protein concentration of 2 mg/mL, and after dispensing, preserved at −80° C. and used upon thawing each time when in use.
The MCHR1 ligand binding inhibitory activity of the test compound was determined as follows.
An MCHR1-expressing CHO cell membrane fraction (173 μL) diluted with an assay buffer was dispensed to a 96 well polypropylene plate (3363, Corning). DMSO solution (2 μL), 33 μM cold MCH(1-19) diluted with DMSO solution (2 μL), or a test compound solution diluted with DMSO solution to various concentrations (2 μL) was added, and lastly, [^125I]-MCH (4-19) diluted with assay buffer (hereinafter, sometimes to be referred to as “hot MCH”, 25 μL) was added to each well. The mixture was reacted with stirring at room temperature for 1 hr, and the plate was set on FilterMate Harvester (PerkinElmer). Using a treating glass filter plate (GF/C, PerkinElmer) with polyethyleneimine, which had been previously set, the plate was suction-filtered and washed three times with washing buffer (50 mM Tris-HCl buffer pH 7.5). The glass filter plate was dried, MicroScinti0 (PerkinElmer) was added at 25 μL/well, and the resulting radioactivity was measured by TopCount liquid scintillation counter (PerkinElmer). The binding inhibition rate of the test compound was calculated by the following formula. Binding inhibition (%)=100−(radioactivity upon addition of test compound and hot MCH−radioactivity upon addition of cold MCH and hot MCH solution)/(radioactivity upon addition of DMSO solution and hot MCH−radioactivity upon addition of cold MCH and hot MCH solution)×100
The binding inhibition rates (%) of test compounds (0.1 μM) as measured using human MCHR1-expressing CHO cell are shown in Table 2.
As for `Cn1c(C2CC2C(C)(C)O)nc2ccc(-n3ccc(OCc4ccc(Cl)cc4)cc3=O)cc21` (stereo not drawn) [Example 154, 4-((4-Chlorobenzyl)oxy)-1-(2-((1R*,2S*)-2-(2-hydroxypropan-2-yl)cyclopropyl)-1-methyl-1H-benzimidazol-6-yl)pyridin-2(1H)-one], the “Binding inhibition rate % (0.1 μM)” value is 91%. With `Cn1c(C2CC2C(C)(C)F)nc2ccc(-n3ccc(OCc4ccc(Cl)cc4)cc3=O)cc21` (stereo not drawn) [Example 209, 4-((4-Chlorobenzyl)oxy)-1-(2-((1R*,2S*)-2-(2-fluoropropan-2-yl)cyclopropyl)-1-methyl-1H-benzimidazol-6-yl)pyridin-2(1H)-one], the “Binding inhibition rate % (0.1 μM)” value is on record as 89%.

The assay is the same for the next values; noted with them: test compound 0.1 μM, human MCHR1-expressing CHO cell membrane fraction, read-out: Binding inhibition rate % (0.1 μM).
For the compound `CC1CC1c1nc2ccc(-n3ccc(OCc4ccc(Cl)cc4)cc3=O)cc2n1C` (stereo not shown) [Example 90, 4-((4-Chlorobenzyl)oxy)-1-(1-methyl-2-(2-methylcyclopropyl)-1H-benzimidazol-6-yl)pyridin-2(1H)-one], the inhibition at 0.1 µM was determined as 80%. As to `Cn1c(C2CCC2)nc2ccc(-n3ccc(OCc4ccc(Cl)cc4)cc3=O)cc21` [Example 109, 4-((4-Chlorobenzyl)oxy)-1-(2-cyclobutyl-1-methyl-1H-benzimidazol-6-yl)pyridin-2(1H)-one], the inhibition at 0.1 µM was determined as 50%.

For the compound `Cn1c(C2CC2)nc2ccc(-n3ccc(OCc4cc(F)cc(F)c4)cc3=O)cc21` [Example 119, 1-(2-Cyclopropyl-1-methyl-1H-benzimidazol-6-yl)-4-((3,5-difluorobenzyl)oxy)pyridin-2(1H)-one], the inhibition at 0.1 µM worked out at 56%. On the same count and under the same terms, the figure for `CCCc1nc2ccc(-n3ccc(OCc4ccccc4)cc3=O)cc2n1C` [Example 126, 4-(Benzyloxy)-1-(1-methyl-2-propyl-1H-benzimidazol-6-yl)pyridin-2(1H)-one] is 65%. On the same count and under the same terms, for `Cc1c(C2CC2)nc2ccc(-n3ccc(OCc4ccc(Cl)s4)cc3=O)cn12` [Example 139, 4-((5-Chloro-2-thienyl)methoxy)-1-(2-cyclopropyl-3-methylimidazo[1,2-a]pyridin-6-yl)pyridin-2(1H)-one] the value was 88%; for `Cc1ccc(COc2ccn(-c3ccc4nc(C5CC5)n(C)c4c3)c(=O)c2)cc1` [Example 142, 1-(2-Cyclopropyl-1-methyl-1H-benzimidazol-6-yl)-4-((4-methylbenzyl)oxy)pyridin-2(1H)-one], 69%. On to `Cc1ocnc1-c1nc2ccc(-n3ccc(OCc4ccc(F)cc4)cc3=O)cc2n1C` [Example 145, 4-((4-Fluorobenzyl)oxy)-1-(1-methyl-2-(5-methyl-1,3-oxazol-4-yl)-1H-benzimidazol-6-yl)pyridin-2(1H)-one], for which the inhibition at 0.1 µM stood at 52%. The same measure, in the same setting: the figure for `Cc1c(C2CC2)nc2ccc(-n3ccc(OCc4ccc(F)c(F)c4)cc3=O)cn12` [Example 146, 1-(2-Cyclopropyl-3-methylimidazo[1,2-a]pyridin-6-yl)-4-((3,4-difluorobenzyl)oxy)pyridin-2(1H)-one] is 77%; for `Cc1c(C2CC2)nc2ccc(-n3ccc(OCc4ccc(Cl)c(F)c4)cc3=O)cn12` [Example 151, 4-((4-Chloro-3-fluorobenzyl)oxy)-1-(2-cyclopropyl-3-methylimidazo[1,2-a]pyridin-6-yl)pyridin-2(1H)-one] it is 73%.

For the compound `Cn1c(C2CC2C(C)(C)O)nc2ccc(-n3ccc(OCc4ccc(Cl)cc4)cc3=O)cc21` (stereo not drawn) [Example 153, 4-((4-Chlorobenzyl)oxy)-1-(2-((1R*,2S*)-2-(2-hydroxypropan-2-yl)cyclopropyl)-1-methyl-1H-benzimidazol-6-yl)pyridin-2(1H)-one], the inhibition at 0.1 µM is 94%. Regarding `Cc1nc2ccc(-n3ccc(OCc4ccc(F)cc4)cc3=O)cn2c1C` [Example 162, 1-(2,3-Dimethylimidazo[1,2-a]pyridin-6-yl)-4-((4-fluorobenzyl)oxy)pyridin-2(1H)-one], the inhibition at 0.1 µM came out at 57%. Still for that read-out and setting: for `Cc1nc2ccc(-n3ccc(OCc4ccccc4)cc3=O)cn2c1C` [Example 163, 4-(Benzyloxy)-1-(2,3-dimethylimidazo[1,2-a]pyridin-6-yl)pyridin-2(1H)-one] the value was 49%; for `Cc1nc2ccc(-n3ccc(OCc4csc(Cl)c4)cc3=O)cn2c1C` [Example 165, 4-((5-Chlorothiophen-3-yl)methoxy)-1-(2,3-dimethylimidazo[1,2-a]pyridin-6-yl)pyridin-2(1H)-one], 81%. Same read-out and setting: the figure for `Cc1nc2ccc(-n3ccc(OCc4ccc(Cl)s4)cc3=O)cn2c1C` [Example 166, 4-((5-Chlorothiophen-2-yl)methoxy)-1-(2,3-dimethylimidazo[1,2-a]pyridin-6-yl)pyridin-2(1H)-one] is 64%. Same read-out and setting: the figure for `CCc1nc2ccc(-n3ccc(OCc4csc(Cl)c4)cc3=O)cn2c1C` [Example 172, 4-((5-Chlorothiophen-3-yl)methoxy)-1-(2-ethyl-3-methylimidazo[1,2-a]pyridin-6-yl)pyridin-2(1H)-one] is 72%; for `Cc1c(C2CC2C#N)nc2ccc(-n3ccc(OCc4ccc(Cl)cc4)cc3=O)cn12` (stereo not shown) [Example 174, 2-(6-(4-((4-Chlorobenzyl)oxy)-2-oxopyridin-1(2H)-yl)-3-methylimidazo[1,2-a]pyridin-2-yl)cyclopropanecarbonitrile] it is 45%. `Cc1c(C2CC2)nc2ccc(-n3ccc(OCc4csc(C(F)F)c4)cc3=O)cn12` [Example 184, 1-(2-Cyclopropyl-3-methylimidazo[1,2-a]pyridin-6-yl)-4-((5-(difluoromethyl)-3-thienyl)methoxy)pyridin-2 (1H)-one]: the inhibition at 0.1 µM came to 82%. On the same count and under the same terms, the figure for `CCc1ncoc1-c1nc2ccc(-n3ccc(OCc4ccc(F)cc4)cc3=O)cc2n1C` [Example 201, 1-(2-(4-Ethyl-1,3-oxazol-5-yl)-1-methyl-1H-benzimidazol-6-yl)-4-((4-fluorobenzyl)oxy)pyridin-2(1H)-one] is 84%; for `Cn1c(C2CC2C(C)(C)F)nc2ccc(-n3ccc(OCc4ccc(Cl)cc4)cc3=O)cc21` (stereo not drawn) [Example 207, 4-((4-Chlorobenzyl)oxy)-1-(2-((1R*,2S*)-2-(2-fluoropropan-2-yl)cyclopropyl)-1-methyl-1H-benzimidazol-6-yl)pyridin-2(1H)-one] it is 85%; for `CCC(=O)c1nc2ccc(-n3ccc(OCc4ccc(Cl)cc4)cc3=O)cc2n1C` [Example 208, 4-((4-Chlorobenzyl)oxy)-1-(1-methyl-2-propanoyl-1H-benzimidazol-6-yl)pyridin-2(1H)-one] it is 39%.

Consider `CCc1nc2ccc(-n3ccc(OCc4ccccc4)cc3=O)cc2n1C` [Example 210, 4-(Benzyloxy)-1-(2-ethyl-1-methyl-1H-benzimidazol-6-yl)pyridin-2(1H)-one], for which the inhibition at 0.1 µM was found to be 51%. Turning to `CCc1nc2ccc(-n3ccc(OCc4ccc(Cl)s4)cc3=O)cc2n1C` [Example 211, 4-((5-Chlorothiophen-2-yl)methoxy)-1-(2-ethyl-1-methyl-1H-benzimidazol-6-yl)pyridin-2(1H)-one], the inhibition at 0.1 µM came to 76%. Still for that read-out and setting: the figure for `Cc1cc(COc2ccn(-c3ccc4nc(C5CC5)n(C)c4c3)c(=O)c2)cs1` [Example 213, 1-(2-Cyclopropyl-1-methyl-1H-benzimidazol-6-yl)-4-((5-methyl-3-thienyl)methoxy)pyridin-2(1H)-one] is 79%; for `Cn1c(C2CC2)nc2ccc(-n3ccc(OCc4csc(F)c4)cc3=O)cc21` [Example 216, 1-(2-Cyclopropyl-1-methyl-1H-benzimidazol-6-yl)-4-((5-fluoro-3-thienyl)methoxy)pyridin-2(1H)-one] it is 88%; for `Cn1c(C2CC2)nc2ccc(-n3ccc(OCc4ccsc4F)cc3=O)cc21` [Example 217, 1-(2-Cyclopropyl-1-methyl-1H-benzimidazol-6-yl)-4-((2-fluoro-3-thienyl)methoxy)pyridin-2(1H)-one] it is 73%. On the same count and under the same terms, the figure for `Cn1c(C2CC2)nc2ccc(-n3ccc(OCc4ccsc4Cl)cc3=O)cc21` [Example 221, 4-((2-Chloro-3-thienyl)methoxy)-1-(2-cyclopropyl-1-methyl-1H-benzimidazol-6-yl)pyridin-2(1H)-one] is 58%.

Broadly, the inhibition is the share of the control response that was lost under treatment.
